Laboratory results from paper PMC12316891, “A bottom-up approach to find lead compounds in expansive chemical spaces” (Communications Chemistry, 2025).
Where two headings read alike, the source gives them in different places.

Legend:
BRD4 (BD1) [1] = target: T1, BRD4 (BD1) (Homo sapiens, UniProt O60885); assay: Competitive HTRF TR-FRET binding assay (displacement of acetylated histone H4 peptide)
T1 construct: A pET28 plasmid containing residues 44–168 of BRD4 (BD1), a 6xHis tag, a TEV protease cleavage site; 6xHis (N, cleaved yes); made in house; host or cells: E. coli Rosetta (D3)
Description: To further quantitatively characterize the DSF/SPR hits compounds obtained in the single-dose screenings, we selected HTRF TR-FRET. Specifically, we employed a competitive HTRF TR-FRET experiment to measure the compound’s capacity to displace an acetylated peptide from the binding site of BRD4 (BD1). For each molecule, a 16-point concentration curve was titrated against the peptide-BRD (BD1) complex and incubated for 1.5 h. A compound was considered a positive binder if we could fit its titration curve to a sigmoidal curve to determine its IC50. […] Compound screening was carried out in 384-well, white, round-bottom, small-volume plates (CORNING) in a final volume of 20 µL of 50 mM HEPES (pH 7.4), 50 mM NaCl, 400 mM KF, 0.5 mM CHAPS, and 0.05% BSA. […] Then, the labeled anti-His6-XL665 antibody (CisBio) (10 nM) was added to the mixture and incubated for 15 min, before the Eu3+ cryptate-conjugated streptavidin (2 nM) (CisBio) was added and incubated for 15 min. All incubations were performed at room temperature. […] Titration of (+)−JQ1 was used as a positive control for each experiment.

His6-BRD4 (BD1) = target: T2, His6-BRD4 (BD1) (Homo sapiens, UniProt O60885); assay: Surface plasmon resonance (SPR) single-dose screening; format: binding; set-up: key to SPR RESULT: Positive: compounds were considered as SPR hits also when their average signal was further than two standard deviations apart from the average signal of the blank samples (1% DMSO); conditions: for RUs at [10 µM]: SPR, compound 10 µM, 1% DMSO, n = 2, decimal comma; for SPR RESULT: single dose 10 µM, n = 2
T2 construct: A pET28 plasmid containing residues 44–168 of BRD4 (BD1), a 6xHis tag, a TEV protease cleavage site; made in house; host or cells: E. coli Rosetta (D3)

BRD4 (BD1) [2] = target: T1, BRD4 (BD1); assay: Differential scanning fluorimetry (DSF) single-dose thermal shift screening; format: binding; conditions: DSF, compound 10 µM, BRD4 (BD1) 2 µM, n = 3, decimal comma; for ΔTm at 10 µM: read-out: ΔTm ºC at [10 µM]
[3] = 16-point titration 0.1 nM to 10 µM, n = 2, Negative = curve could not be fitted to a sigmoidal curve, read-out: TR-FRET IC50
[4] = 16-point titration 0.1 nM to 10 µM, n = 2, Negative = curve could not be fitted to a sigmoidal curve

SMILES	IC50 (BRD4 (BD1) [1]; [3]) [nM]	RUs at [10 µM] (His6-BRD4 (BD1))	SPR RESULT (His6-BRD4 (BD1))	ΔTm at 10 µM (BRD4 (BD1) [2]) [°C]	TR-FRET IC50 (nM) (BRD4 (BD1) [1]; [4])	IC50 (BRD4 (BD1) [1]) [nM]	ΔTm ºC at [10 µM] (BRD4 (BD1) [2])
CCn1nnc2cc(C(=O)N3CCCN(C(=O)c4ccccc4Cl)C(c4ccccc4)C3)ccc21 (stereo not drawn) [Compound 34, CCN1N=NC=2C=C(C=CC12)C(=O)N3CCCN(C(C3)C=4C=CC=CC4)C(=O)C=5C=CC=CC5Cl]	1210	23,05 ± 1,41 RUs	Positive	0.86			
COc1cccc(-n2c(C)nnc2SCC(=O)N2CC3CCC2CN3C(=O)c2ccns2)c1 (stereo not drawn) [Compound 35, COC=1C=CC=C(C1)N2C(C)=NN=C2SCC(=O)N3CC4CCC3CN4C(=O)C5=CC=NS5]	1070	13,78 ± 5,32 RUs	Negative	0.69			
CCn1nnc2cc(C(=O)N3CCC(N(C)C(=O)C4CN(C)CCO4)C3)ccc21 (stereo not drawn) [Compound 36, CCN1N=NC=2C=C(C=CC12)C(=O)N3CCC(C3)N(C)C(=O)C4CN(C)CCO4]		6,83 ± 2,31 RUs	Negative	0.34	Negative		
COc1cccc(-n2c(C)nnc2SCC(=O)N2CC(n3cc(-c4ccc(F)cn4)nn3)C2)c1 [Compound 37, COC=1C=CC=C(C1)N2C(C)=NN=C2SCC(=O)N3CC(C3)N4C=C(N=N4)C=5C=CC(F)=CN5]		12,42 ± 11,24 RUs	Negative	0.77	Negative		
COc1ccc(CNc2ccc3ccn(C)c(=O)c3c2)cc1OCC(C)C [Compound 38, COC=1C=CC(CNC=2C=CC=3C=CN(C)C(=O)C3C2)=CC1OCC(C)C]		30,29 ± 13,03 RUs	Negative	0.25	Negative		
COC(C)CC(=O)N1CCC(C2(O)CCN(C(=O)c3sc4nnc(C)c(C)c4c3N)C2)CC1 (stereo not drawn) [Compound 39, COC(C)CC(=O)N1CCC(CC1)C2(O)CCN(C2)C(=O)C=3SC=4N=NC(C)=C(C)C4C3N]	78.9	11,34 ± 6,3 RUs	Negative	1.12			
CCCc1c(C(=O)N2CCOC(CNC(=O)c3cc(C)ccn3)C2)[nH]c(C)c1C(C)=O (stereo not drawn) [Compound 40, CCCC1=C(NC(C)=C1C(=O)C)C(=O)N2CCOC(CNC(=O)C=3C=C(C)C=CN3)C2]	372	9,46 ± 0,53 RUs	Positive	1.13			
Cc1nnnn1-c1cc(F)cc(C(=O)N2CCN(C(=O)C(=O)NCC3CC3)C(C(C)C)C2)c1 (stereo not drawn) [Compound 41, CC(C)C1CN(CCN1C(=O)C(=O)NCC2CC2)C(=O)C=3C=C(F)C=C(C3)N4N=NN=C4C]		1,13 ± 7,64 RUs	Negative	1.7	Negative		
Cn1cc(C(=O)Nc2ccc(OCc3cnccn3)cc2)c2ccccc2c1=O [Compound 42, CN1C=C(C(=O)NC=2C=CC(OCC=3C=NC=CN3)=CC2)C=4C=CC=CC4C1=O]	169	34,2 ± 10,95 RUs	Positive	1.04			
COc1cccc(-n2c(C)nnc2SCC(=O)Nc2ccc(C(F)F)cc2)c1 [Compound 43, COC=1C=CC=C(C1)N2C(C)=NN=C2SCC(=O)NC=3C=CC(=CC3)C(F)F]	1590	32,1 ± 9,99 RUs	Positive	1.99			
COc1ccc(-n2c(C)nnc2SCC(=O)NCc2cc(C)nc(C)c2)cc1 [Compound 44, COC=1C=CC(=CC1)N2C(C)=NN=C2SCC(=O)NCC=3C=C(C)N=C(C)C3]	5.83	17,34 ± 14,82 RUs	Negative	1.68			
COc1ccc(-n2c(C)nnc2SCC(=O)N2CC3(CCN(C)CC3)C2)cc1 [Compound 45, COC=1C=CC(=CC1)N2C(C)=NN=C2SCC(=O)N3CC4(C3)CCN(C)CC4]		9,8 ± 3,73 RUs	Negative	2.18	Negative		
CC(NS(=O)(=O)c1cccc(-c2nnnn2C)c1)C1CCN(Cc2ccccc2)C1 (stereo not drawn) [Compound 46, CC(NS(=O)(=O)C=1C=CC=C(C1)C2=NN=NN2C)C3CCN(CC=4C=CC=CC4)C3]	240	19,71 ± 0,01 RUs	Positive	2.47			
COc1ccc(-c2cc(NC(=O)C(=O)NC(C)c3nnc4ncccn34)ccc2OC)cc1 (stereo not drawn) [Compound 47, COC=1C=CC(=CC1)C=2C=C(NC(=O)C(=O)NC(C)C3=NN=C4N=CC=CN34)C=CC2OC]	256	25,41 ± 18,52 RUs	Negative	1.25			
COc1ccc(-n2c(C)nnc2SCC(=O)N(c2ccccc2)C2CC2)cc1 [Compound 48, COC=1C=CC(=CC1)N2C(C)=NN=C2SCC(=O)N(C3CC3)C=4C=CC=CC4]	53.2	4,63 ± 0,03 RUs	Negative	2.35			
COc1ccc(-n2c(C)nnc2SCC(=O)NC2CCC3(CNC3)C2)cc1 (stereo not drawn) [Compound 49, COC=1C=CC(=CC1)N2C(C)=NN=C2SCC(=O)NC3CCC4(CNC4)C3]	105	17,72 ± 5,47 RUs	Negative	2.73			
CNC(=O)c1ccc(-n2nc(Cn3cccn3)nc2-c2cn(C)c(=O)c3ccccc23)cc1 [Compound 50, CNC(=O)C=1C=CC(=CC1)N2N=C(CN3C=CC=N3)N=C2C4=CN(C)C(=O)C=5C=CC=CC45]	1130	10,43 ± 9,29 RUs	Negative	2.29			
CN(C)S(=O)(=O)c1ccc(-n2nc(-c3cccnc3)nc2-c2cn(C)c(=O)c3ccccc23)cc1 [Compound 51, CN(C)S(=O)(=O)C=1C=CC(=CC1)N2N=C(N=C2C3=CN(C)C(=O)C=4C=CC=CC34)C=5C=CC=NC5]	39.3	29,75 ± 5,31 RUs	Positive	3.61			
COc1ccc(-n2c(C)nnc2SCC(=O)NC2CCN(C(=O)c3cc(Cl)sc3Cl)CC2C)cc1 (stereo not drawn) [Compound 52, COC=1C=CC(=CC1)N2C(C)=NN=C2SCC(=O)NC3CCN(CC3C)C(=O)C=4C=C(Cl)SC4Cl]	266	31,14 ± 2,8 RUs	Positive	-0.23			
CN(C)C(=O)Sc1cc(NC(=O)c2cn(C)c(=O)c3ccccc23)ccc1Cl [Compound 53, CN(C)C(=O)SC=1C=C(NC(=O)C2=CN(C)C(=O)C=3C=CC=CC23)C=CC1Cl]	1040	28,62 ± 5,34 RUs	Positive	1.09			
CCCc1c(C(=O)N2CCC(Cc3cn(C4CC4)nn3)CC2)[nH]c(C)c1C(C)=O [Compound 54, CCCC1=C(NC(C)=C1C(=O)C)C(=O)N2CCC(CC3=CN(N=N3)C4CC4)CC2]	277	17,03 ± 5,1 RUs	Negative	2.91			
COc1ccc(-n2c(C)nnc2SCC(=O)Nc2ccc(C)c(Cl)c2Cl)cc1 [Compound 55, COC=1C=CC(=CC1)N2C(C)=NN=C2SCC(=O)NC=3C=CC(C)=C(Cl)C3Cl]		11,56 ± 1,14 RUs	Positive			1020	3,66 ± 0,12 ºC
CCn1nnc2cc(C(=O)N3CCC(c4nnc(CNC(=O)c5ccncn5)s4)CC3)ccc21 [Compound 56, CCN1N=NC=2C=C(C=CC12)C(=O)N3CCC(CC3)C4=NN=C(CNC(=O)C=5C=CN=CN5)S4]	722	10,07 ± 8,75 RUs	Negative	3.79			
COC1(CNC(=O)C2=C(Cl)CCCC2)CCN(C(=O)c2sc3nnc(C)c(C)c3c2N)CC1 [Compound 57, COC1(CNC(=O)C2=C(Cl)CCCC2)CCN(CC1)C(=O)C=3SC=4N=NC(C)=C(C)C4C3N]		26,22 ± 6,56 RUs	Positive	0.48	Negative		
